These are literature values, as cited in patent publication EP1112064B1, “METHOD FOR PREPARING NOVEL FENOFIBRATE GALENIC FORMULATIONS, GALENIC FORMULATIONS OBTAINED AND APPLICATIONS” (CLL Pharma, Arenas, priority 1998, dated 2000).

As to `CC(C)OC(=O)C(C)(C)Oc1ccc(C(=O)c2ccc(Cl)cc2)cc1` [fénofibrate, 2-(4-(4-chlorobenzoyl)-phénoxy)-2-méthyl propionate d'isopropyle], the résorption intestinale entry (administered in sunflower oil) was “presque complète”. Moreover, where the note is “in vivo”, the “demi-vie d'élimination” value is roughly 20 heures. Where the note is “one 300 mg capsule during a meal, reaches the blood as fenofibric acid”, the “dose de fénofibrate administrée résorbée” value is 60%.
